Assays:
[1] = molecular target: EGFR (d746-750/T790M/C797S) (Homo sapiens (Human), UniProt P00533, C797S/DEL746-750/T790M); assay: Inhibitory activity for EGFR (d746-750/T790M/C797S) kinase; assay type: biochemical; conditions: ATP 5 μM; read-out: EGFR(d19/T790M/C797S) (IC50)
In short: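 EGFR d746-750/T790M/C797S (0.03 ng/μL final) preincubated 30 min with compound (10 nM–0.0024 nM, 4-fold, 7 points). Reaction with 5 μM ATP and 0.1 μM ULight-poly GT, 2 h at room temperature; EDTA stop, Eu-anti-phosphotyrosine TR-FRET read at 665 nm, IC50 by four-parameter fit.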

[2] = molecular target: EGFR (d746-750 (d19)/T790M) (Homo sapiens (Human), UniProt P00533, DEL746-750/T790M); assay: Inhibitory activity for EGFR (d746-750 (d19)/T790M) kinase; assay type: biochemical; conditions: ATP 5 μM
EGFR (d746-750 (d19)/T790M), sequence (P00533 other isoform, or with tags, fused parts or gaps T790M/del 1-668/del 746-750 limits assumed): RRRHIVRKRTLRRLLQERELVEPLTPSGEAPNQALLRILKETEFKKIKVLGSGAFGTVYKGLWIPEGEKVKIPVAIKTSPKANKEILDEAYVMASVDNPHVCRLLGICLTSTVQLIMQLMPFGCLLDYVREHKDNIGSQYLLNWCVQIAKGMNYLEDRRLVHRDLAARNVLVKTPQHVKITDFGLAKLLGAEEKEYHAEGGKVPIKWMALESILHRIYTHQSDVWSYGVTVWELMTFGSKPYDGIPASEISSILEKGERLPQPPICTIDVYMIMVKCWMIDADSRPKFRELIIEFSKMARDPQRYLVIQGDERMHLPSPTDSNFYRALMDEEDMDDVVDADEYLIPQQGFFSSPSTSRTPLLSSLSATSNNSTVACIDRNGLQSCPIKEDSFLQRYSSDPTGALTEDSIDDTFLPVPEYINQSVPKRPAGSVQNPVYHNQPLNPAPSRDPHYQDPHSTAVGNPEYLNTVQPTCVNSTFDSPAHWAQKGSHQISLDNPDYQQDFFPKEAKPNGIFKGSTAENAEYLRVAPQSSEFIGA
In short: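 Recombinant EGFR d746-750/T790M (0.003 ng/μL final) preincubated 30 min with compound (10 to 0.0024 nM, 4-fold steps), then 5 μM ATP and 0.1 μM ULight-poly GT added for 2 h at room temperature. EDTA stop, Eu-anti-phosphotyrosine TR-FRET read (665 nm); IC50 by four-parameter fit.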

[3] = In vitro stability in liver microsomes; assay type: in vitro ADME; conditions: Human liver microsome
Method: 300 μL of the final incubation system contains 30 μL of liver microsomes (protein concentration: 0.15 mg/mL), 30 μL of NADPH+MgCl2, 3 μL of the test compound (in acetonitrile), and 237 μL of PBS buffer (pH 7.4). The proportion of the organic solvent (acetonitrile) was 1%. Samples were prepared in duplicate of 0.3 mL for each species (e.g., human or mouse liver microsomes). Tubes each containing 270 μL of a mixed solution of substrate and enzyme […] were pre-incubated at 37° C. for 5 min. 30 μL of NADPH+MgCl2 was added and the mixture was mixed. 50 μL of the mixture was taken at 0 min, 15 min, 30 min, and 60 min, and 300 μL of glacial acetonitrile containing an internal standard was added to terminate the reaction.
50 μL of the incubated sample was added with 300 μL of glacial acetonitrile containing an internal standard (20 ng/mL diazepam) for precipitation. The mixture was vortexed for 5 min, and centrifuged (12,000 rpm, 4° C.) for 10 min. 75 μL of supernatant was taken and diluted with 75 μL of ultrapure water. After being homogeneously mixed, 0.5 μL of the resulting sample was injected for analysis.

[4] = test system: NCI-H1975(L858R T790M); assay: Nude mouse subcutaneous xenograft tumor model of NCI-H1975 cells; assay type: in vivo, nude mice; conditions: once a day; for Tumor growth inhibition % (tumor weight, d 18) / Tumor growth inhibition % (volume, d 15): 17 days
Description: Evaluation on drug effect on nude mouse subcutaneous xenograft tumor model of NCI-H1975 cells: NCI-H1975 cells were inoculated subcutaneously in the right axilla of SPF-grade female nude mice (source: Jiangsu Huachuang Sino Pharmaceutical Technology Co., Ltd.) at 1×10^6 cells/mouse. When the mean tumor volume reached about 200 mm^3, the animals were grouped.
The day of grouping was defined as day 0, and intragastric administration was started on day 0 and performed once a day. The tumor volume was measured 2-3 times a week, meanwhile, the mice were weighed and the data were recorded; the general behavior of the mice was observed and recorded every day. After the experiment was completed, the tumors were removed, weighed, and photographed.
Tumor volume TV (mm^3)=½×(a×b^2),
Relative tumor volume RTV=TVt/TV0,
Relative tumor proliferation rate T/C (%)=(TRTV/CRTV)×100%,
Tumor growth inhibition rate TGI (%)=(1−TW/TW0)×100%;

EGFR (d746-750/T790M/C797S), sequence (P00533 other isoform, or with tags, fused parts or gaps T790M/C797S/del 1-694/del 746-750 limits assumed): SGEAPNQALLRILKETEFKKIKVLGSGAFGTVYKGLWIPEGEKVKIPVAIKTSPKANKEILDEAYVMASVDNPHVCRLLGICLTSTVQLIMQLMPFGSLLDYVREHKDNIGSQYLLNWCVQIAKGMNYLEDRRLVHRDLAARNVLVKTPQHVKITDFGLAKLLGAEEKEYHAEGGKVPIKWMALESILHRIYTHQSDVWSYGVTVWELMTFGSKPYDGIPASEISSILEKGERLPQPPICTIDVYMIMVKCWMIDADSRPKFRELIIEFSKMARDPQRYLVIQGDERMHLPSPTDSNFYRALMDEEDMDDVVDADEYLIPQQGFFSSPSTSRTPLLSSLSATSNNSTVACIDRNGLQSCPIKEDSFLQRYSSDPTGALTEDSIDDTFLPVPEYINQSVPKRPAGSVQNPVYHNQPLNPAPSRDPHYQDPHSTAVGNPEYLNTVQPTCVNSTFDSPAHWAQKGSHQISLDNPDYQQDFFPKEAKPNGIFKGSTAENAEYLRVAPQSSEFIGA

IC50 [1] | IC50 [2] | Stability in liver microsomes (residual %, T = 60 min) [3] | SMILES | Tumor growth inhibition % (tumor weight, d 18) ([4]; 5 mpk (i.g)) | Tumor growth inhibition % (volume, d 15) ([4]; 5 mpk (i.g)) | Tumor growth inhibition % (tumor weight, d 18) ([4]; 10 mpk (i.g)) | Tumor growth inhibition % (volume, d 15) ([4]; 10 mpk (i.g)) | Tumor growth inhibition % (tumor weight, d 14) ([4]; 10 mpk (i.g), 14 days) | Tumor growth inhibition % (volume, d 12) ([4]; 10 mpk (i.g), 14 days)
0.011 nM | 0.0072 nM | – | Cc1cc2cc(n1)-c1cnn(C)c1OCCC[C@@H](C1CC1)CN1/C(=N/C2=O)Nc2ccc(NCCN(C)C)cc21 [Example 28] | – | – | – | – | – | –
0.074 nM | 0.04 nM | – | Cc1cc2cc(n1)-c1cnn(C)c1OC[C@H](C1CC1)CCCn1c(nc3ccc(NC4COC4)cc31)NC2=O [Example 59] | – | – | – | – | – | –
0.07 nM | 0.039 nM | – | Cc1cc2cc(n1)-c1cnn(C)c1OC[C@H](C1CC1)CCCn1c(nc3cc(NC4COC4)ccc31)NC2=O [Example 60] | – | – | – | – | – | –
0.181 nM | 0.044 nM | – | Cc1cc2cc(n1)-c1cnn(C)c1OCCC[C@@H](C1CC1)CN1/C(=N/C2=O)Nc2cc(NC3(C(F)(F)F)COC3)ccc21 [Example 88] | – | – | – | – | – | –
0.45 nM | 0.28 nM | 59.54% | C[C@H](Nc1ccc2c(c1)N/C1=N\C(=O)c3cc(F)nc(c3)-c3cnn(C)c3OCCC[C@@H](C3CC3)CN12)C(F)(F)F [Example 9] | – | – | – | – | – | –
0.014 nM | 0.011 nM | 103.07% | Cc1cc2cc(n1)-c1cnn(C)c1OCCC[C@@H](C1CC1)CN1/C(=N/C2=O)Nc2cc(N[C@H]3CC[C@H](N(C)C)CC3)ccc21 [Example 25] | 31.4% (tumor | 22.5% (volume, | 75.8% (tumor | 72.5% (volume, | – | –
0.021 nM | 0.016 nM | – | Cc1cc2cc(n1)-c1cnn(C)c1OCCC[C@@H](C1CC1)CN1/C(=N/C2=O)Nc2ccc(C=CCCN(C)C)cc21 [Example 24] | – | – | – | – | – | –
0.015 nM | 0.0089 nM | – | Cc1cc2cc(n1)-c1cnn(C)c1OCCC[C@@H](C1CC1)CN1/C(=N/C2=O)Nc2cc(NC3(C)COC3)ccc21 [Example 29] | 41.7% (tumor weight, | 40.0% (volume, d 15) | 83.9% (tumor | 75.0% (volume, | – | –
0.017 nM | 0.011 nM | 98.30% | Cc1cc2cc(n1)-c1cnn(C)c1OCCC[C@@H](C1CC1)CN1/C(=N/C2=O)Nc2cc(N[C@H]3CC[C@@H](N(C)C)CC3)ccc21 [Example 26] | – | – | – | – | – | –
0.024 nM | 0.012 nM | – | Cc1cc2cc(n1)-c1cnn(C)c1OCCC[C@@H](C1CC1)CN1/C(=N/C2=O)Nc2cc(N[C@H](C)C3COC3)ccc21 [Example 39] | – | – | – | – | 65.1% (tumor | 70.2%

Reference: patent US20250034165A1, “COMPOUND CONTAINING CYCLOALKYL OR HALOALKYL” (CHIA TAI TIANQING PHARMACEUTICAL GROUP CO., LTD., priority 2021, published 2025)
